Test results: PubChem BioAssay (NCI)
≈ marks a conversion by molar mass, not a printed value. Where “and” joins values, the source holds several entries; their conditions need not be identical. Equal values may be shown once.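 These data come from cells grown in 96-well plates and exposed to compound for 48 hours at five concentrations. The concentration for 50% growth inhibition is given as GI50. TGI: concentration producing complete growth inhibition.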 Where a SMILES comes first, the peptide text is derived from it. [ ]: non-standard residue; d: D form. The star is where a group is joined. NMeF = CN[CH](Cc1ccccc1)C(=O)O; NMeV = CN[CH](C(=O)O)C(C)C; Boc = CC(C)(C)OC(=O)*; OBn = c1ccc(CO*)cc1

Experiments:
Test in all cases: DTP human tumour cell line panel, 48 h
ACHN renal = test system: ACHN renal
HCC-2998 colon = test system: HCC-2998 colon
HCT-15 colon = test system: HCT-15 colon
MDA-MB-231 breast = test system: MDA-MB-231 breast
MDA-N = test system: MDA-N
MOLT-4 leukemia = test system: MOLT-4 leukemia
NCI-H23 lung = test system: NCI-H23 lung
NCI-H522 lung = test system: NCI-H522 lung
SF-268 CNS = test system: SF-268 CNS
SK-MEL-28 melanoma = test system: SK-MEL-28 melanoma
NCI-H226 lung = test system: NCI-H226 lung

Row | Compound | TGI (ACHN renal) [µM] | TGI (HCC-2998 colon) | TGI (HCT-15 colon) | TGI (MDA-MB-231 breast) | TGI (MDA-N) [µM] | TGI (MOLT-4 leukemia) | TGI (NCI-H23 lung) | TGI (NCI-H522 lung) | TGI (SF-268 CNS) | TGI (SK-MEL-28 melanoma) | GI50 (HCC-2998 colon) [µg/mL] | GI50 (HCT-15 colon) [µg/mL] | GI50 (MDA-MB-231 breast) [µg/mL] | GI50 (NCI-H23 lung) [µg/mL] | GI50 (SF-268 CNS) [µg/mL] | GI50 (SK-MEL-28 melanoma) [µg/mL] | TGI (NCI-H226 lung) [µM] | GI50 (ACHN renal) | GI50 (MOLT-4 leukemia)
1 | S=C1NC2=C(CSC/C2=C\c2ccc(Cl)cc2)C(c2ccc(Cl)cc2)N1 (stereo not drawn) | > 100 | 77.6 µM | > 100 µM | > 100 µM | > 100 | > 100 µM | > 100 µM | > 100 µM | > 100 µM | > 100 µM |  |  |  |  |  |  |  |  | 
2 | Cc1nc2nc(C)n(CCN3CCOCC3)c(=O)c2c(-c2cccc([N+](=O)[O-])c2)c1C(=O)CCCCCCCCCCN1CCC(c2ccccc2)(c2ccccc2)CC1 |  | 4.56 µg/mL | 3.17 µg/mL | 3.53 µg/mL |  |  | 3.71 µg/mL |  | 4.26 µg/mL | 4.34 µg/mL | 2.37 (≈ 2.91 µM) | 1.32 (≈ 1.62 µM) | 1.68 (≈ 2.07 µM) | 1.81 (≈ 2.22 µM) | 2.26 (≈ 2.78 µM) | 2.26 (≈ 2.78 µM) |  |  | 
3 | COC(=O)C1(C(=O)OC)N=C(C)OC1c1ccccc1O (stereo not drawn) | > 100 | > 100 µM | > 100 µM |  |  | > 100 µM | > 100 µM |  |  | > 100 µM |  |  |  |  |  |  | > 100 |  | 
4 | Cn1c(=O)c2ccccc2[n+]2c(-c3cccc([N+](=O)[O-])c3)csc12 | > 100 | > 100 µM |  | > 100 µM | > 100 | > 100 µM | > 100 µM | > 100 µM | > 100 µM | > 100 µM |  |  |  |  |  |  | > 100 |  | 
5 | O=S1SC(=S)C2C=CC=NC21 (stereo not drawn) | 32.4 | 28.8 µM | 49.2 µM | 42.3 µM | 27.8 | 64.9 µM | 43.1 µM | 53 µM | 44.6 µM | > 100 µM |  |  |  |  |  |  | 56.4 |  | 
6 | CN1CCC2(c3ccccc3)CC(=O)/C(=C/c3ccc(Cl)c(Cl)c3)C1C2 (stereo not drawn) | 3.17 |  | 4.59 µM | 3.21 µM | 13.9 | 7.81 µM | 8.45 µM | 3.6 µM | 3.73 µM | 5.59 µM |  |  |  |  |  |  | 4.69 |  | 
7 | Cc1ccc2[nH]c3c(c(=O)n(C)c(=O)n3C)c2c1 | > 100 | > 100 µM | > 100 µM | > 100 µM | > 100 | > 100 µM | > 100 µM | > 100 µM | > 100 µM |  |  |  |  |  |  |  | > 100 |  | 
8 | COc1ccc(N2C(=O)C(Cl)C2c2cc3cc(Br)ccc3nc2Cl)cc1 (stereo not drawn) | 9.64 | 7.52 µM | 11 µM | 9.1 µM | 15.7 | 11.9 µM | 15.6 µM | 8.33 µM | 19 µM | > 25 µM |  |  |  |  |  |  | 13.2 |  | 
9 | COc1cc(S(=O)(=O)Nc2ccc(-c3csc(N4C(=O)C(C)SC4c4cccs4)n3)cc2)ccc1Cl (stereo not drawn) | > 100 |  | > 100 µM |  |  | > 100 µM | > 100 µM | 56.6 µM | > 100 µM | 69 µM |  |  |  |  |  |  | > 100 |  | 
10 | CC(Br)CN1CCOCC1 (stereo not drawn) | > 100 | > 100 µM | > 100 µM | > 100 µM |  |  | > 100 µM | > 100 µM | > 100 µM | > 100 µM |  |  |  |  |  |  | > 100 |  | 
11 | Cc1cc(O)c2c(c1)C(=O)c1c(c(O)cc(O)c1-c1c(O)cc(O)c3c1C(=O)c1cc(C)cc(O)c1C3=O)C2=O |  | 35.2 µM | 38 µM |  |  | 50.8 µM | 50.8 µM | 59 µM | 75.4 µM | 70.8 µM |  |  |  |  |  |  | 50 |  | 
12 | Nc1nc(SCC(=O)c2ccccc2)c2[nH]cnc2n1 | > 100 | > 100 µM | > 100 µM |  |  | > 100 µM | > 100 µM | > 100 µM | > 100 µM | > 100 µM |  |  |  |  |  |  | > 100 |  | 
13 | C/C(O)=C(\C=N\C(=S)N=Nc1c(O)[nH]c2ccccc12)C(=O)Nc1ccccc1C | > 100 | > 100 µM | > 100 µM | > 100 µM | > 100 | > 100 µM | > 100 µM |  | > 100 µM | > 100 µM |  |  |  |  |  |  | > 100 |  | 
14 | C/C(=C\COP(=O)(O)OP(=O)(O)O)CCCCCCOCc1ccccc1 | > 100 | > 100 µM | > 100 µM | > 100 µM |  | > 100 µM | > 100 µM | > 100 µM | > 100 µM | > 100 µM |  |  |  |  |  |  | > 100 |  | 
15 | Cc1ccc(Nc2cccc3c2C(=O)c2cccc(Nc4ccc(C)cc4S(=O)(=O)O)c2C3=O)c(S(=O)(=O)O)c1 | > 100 | > 100 µM | > 100 µM |  |  | > 100 µM |  | > 100 µM | > 100 µM | > 100 µM |  |  |  |  |  |  | > 100 |  | 
16 | CC(=O)[O-].CC(=O)[O-].O=C(N/N=C/c1cc(Cl)cc(Cl)c1[OH2+])c1ccncc1.[Mn+2] | 13.8 | 17 µM | 25.1 µM |  |  | 0.84 µM | 21.9 µM | 14.8 µM | 27.2 µM | 25 µM |  |  |  |  |  |  | 12.1 |  | 
17 | CC(C)C(NC(=O)OC(C)(C)C)C(=O)N(C)C(Cc1ccccc1)C(=O)N(C)C(C(=O)OCc1ccccc1)C(C)C (stereo not drawn) (Boc-Val-[NMeF]-[NMeV]-OBn; configuration not given here) | > 100 | > 100 µM | > 100 µM |  |  | 39.6 µM and 44 µM | > 100 µM | 29.7 µM and 69 µM | > 100 µM | > 100 µM |  |  |  |  |  |  | > 100 | > 100 µM and 41 µM | 5.92 µM and 14.8 µM
18 | Cc1cc(=O)oc2c1cc1ccc3cccc4ccc2c1c34 | > 100 |  | > 100 µM |  |  | > 100 µM | > 100 µM | > 100 µM | > 100 µM | > 100 µM |  |  |  |  |  |  | > 100 |  | 
19 | NS(=O)(=O)c1nnc(NS(=O)(=O)c2ccccc2[N+](=O)[O-])s1 | > 100 | > 100 µM | > 100 µM | > 100 µM |  | > 100 µM | > 100 µM | > 100 µM | > 100 µM | > 100 µM |  |  |  |  |  |  | > 100 |  | 
20 | COc1ccc(-c2sc(Br)c3c2C(=O)C2OC(=O)NC32)cc1OC (stereo not drawn) | > 100 |  | > 100 µM | > 100 µM | > 100 | > 100 µM | > 100 µM | > 100 µM | > 100 µM |  |  |  |  |  |  |  | > 100 |  | 
21 | CC1(C)Cc2c(sc3[nH]c(=S)[nH]c(=S)c23)CS1 |  |  | > 100 µM | > 100 µM | > 100 | > 100 µM | > 100 µM |  | > 100 µM | > 100 µM |  |  |  |  |  |  | > 100 |  | 
